Test results published in PMC10480161, “Identification of potent and selective N-myristoyltransferase inhibitors of Plasmodium vivax liver stage hypnozoites and schizonts” (Nature Communications, 2023).
Values joined by “and” are separate entries in the source; they are usually repeats but may differ in a detail not shown here. Equal entries are not always repeated.

What was measured:
HsNMT1 = biological target: T1, HsNMT1 (Homo sapiens, UniProt P30419); test: NMT activity assay (CPM detection of free CoA), HsNMT
T1 sequence (P30419 1-496): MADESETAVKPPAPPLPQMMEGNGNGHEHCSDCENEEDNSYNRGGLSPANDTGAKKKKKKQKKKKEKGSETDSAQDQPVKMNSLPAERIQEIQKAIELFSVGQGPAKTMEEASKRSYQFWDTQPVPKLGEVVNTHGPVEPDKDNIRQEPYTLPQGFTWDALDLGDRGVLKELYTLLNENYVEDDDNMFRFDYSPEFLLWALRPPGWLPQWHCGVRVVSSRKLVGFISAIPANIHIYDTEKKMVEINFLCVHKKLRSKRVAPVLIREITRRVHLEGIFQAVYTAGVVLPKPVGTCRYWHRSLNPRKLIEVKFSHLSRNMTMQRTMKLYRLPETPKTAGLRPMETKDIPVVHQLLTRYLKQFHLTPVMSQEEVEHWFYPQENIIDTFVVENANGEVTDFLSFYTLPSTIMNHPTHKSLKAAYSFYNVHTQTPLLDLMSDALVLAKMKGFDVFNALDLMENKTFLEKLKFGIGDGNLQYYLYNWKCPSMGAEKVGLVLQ

PvNMT = PvNMT (Plasmodium vivax, UniProt A5K1A2); test: NMT activity assay (CPM detection of free CoA), PvNMT
Chain of PvNMT (A5K1A2 entry or part of it): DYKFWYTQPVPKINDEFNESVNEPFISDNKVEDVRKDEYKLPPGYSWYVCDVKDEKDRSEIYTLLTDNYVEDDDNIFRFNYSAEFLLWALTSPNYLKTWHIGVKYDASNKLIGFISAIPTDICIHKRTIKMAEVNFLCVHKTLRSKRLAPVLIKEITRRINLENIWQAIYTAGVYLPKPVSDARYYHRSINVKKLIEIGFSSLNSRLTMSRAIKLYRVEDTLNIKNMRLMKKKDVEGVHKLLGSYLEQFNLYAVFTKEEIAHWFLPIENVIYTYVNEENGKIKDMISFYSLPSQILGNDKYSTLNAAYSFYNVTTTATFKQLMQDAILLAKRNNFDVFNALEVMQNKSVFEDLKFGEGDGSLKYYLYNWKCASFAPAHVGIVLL

HepG2 cells = test: HepG2 cytotoxicity assay (Live/Dead staining); conditions: replicates
Procedure, shortened: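 HepG2 cells (5000/well) treated with compounds at 1 to 20 µM, re-dosed with fresh compound every 24 h. Viability scored at 72 h by calcein-AM/ethidium homodimer (1 µM each, 10 min, 37 °C) live/dead staining under fluorescence microscopy.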

P. vivax hypnozoites = test: P. vivax liver stage assay, hypnozoites; format: cell-based, Plasmodium vivax; conditions: for Hypnozoites per well: Isolate 2, replicate wells (Figure 6d); for Number of liverstage hypnozoites per well: 20 µM, 8 dpi
Procedure, shortened: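 Primary human hepatocytes infected with P. vivax sporozoites, then exposed to compound daily from day 5 to day 8 post-infection. Fixed cells stained with DAPI and PvUIS4 antibody; hypnozoites and schizonts counted by confocal imaging. MMV390048 at 20 µM served as schizont-eliminating control.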

P. vivax schizonts = test: P. vivax liver stage assay, schizonts; format: cell-based, Plasmodium vivax; conditions: for Number of liverstage Schizonts per well: 20 µM, 8 dpi
Procedure, shortened: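 Primary human hepatocytes (single donor, 25,000/well) infected with 14,000 P. vivax sporozoites per well from patient isolates; compounds (up to 20 µM) given daily from day 5 to day 8 post-infection. Schizonts counted by PvUIS4/DAPI confocal imaging; DAPI nuclei count used as toxicity measure.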

Cc1nn(C)c(C)c1CCOc1cc(F)ccc1-c1cccc(OCCN(C)C)c1 [Compound 26c]
IC50 (HsNMT1): 4.79 µM
IC50 (PvNMT; PvNMT IC50, mean of two or more determinations): 0.0294 µM
SI (PvNMT; enzyme selectivity, HsNMT IC50/PvNMT IC50): 162.3
Percentage of live HepG2 cells compared with diluent controls (HepG2 cells; 1 μM): 106.359% and 107.918%
Percentage of live HepG2 cells compared with diluent controls (HepG2 cells; 2.5 μM): 107.866% and 101.058%
Percentage of live HepG2 cells compared with diluent controls (HepG2 cells; 5 μM): 101.681% and 95.3408%
Percentage of live HepG2 cells compared with diluent controls (HepG2 cells; 10 μM): 87.7011% and 97.3677%
Percentage of live HepG2 cells compared with diluent controls (HepG2 cells; 20 μM): 83.4394% and 83.5174%
Hypnozoites per well (P. vivax hypnozoites; 1.25 uM): 7 and 11 and 8
Hypnozoites per well (P. vivax hypnozoites; 2.5 uM): 6 and 5 and 7
Hypnozoites per well (P. vivax hypnozoites; 5 uM): 6 (2×) and 3
Hypnozoites per well (P. vivax hypnozoites; 10 uM): 3 and 2 and 7
Number of liverstage hypnozoites per well (P. vivax hypnozoites; isolate 1, technical replicates (Fig. 6C)): 4 per well and 0 per well (2×)
Number of liverstage hypnozoites per well (P. vivax hypnozoites; isolate 2, technical replicates (Fig. 6C)): 4 per well and 0 per well (2×)
Number of liverstage hypnozoites per well (P. vivax hypnozoites; isolate 3, technical replicates (Fig. 6C)): 0 per well (2×) and 1 per well
Hypnozoites per well (P. vivax hypnozoites; 20 uM): 4 and 0 (2×)
IC50 (P. vivax hypnozoites; Plasmodium vivax, Hepatocyte, 120 h, primary human hepatocytes, treatment day 5 to 8 post-infection, isolate 2): 4.2 µM
hypnozoites (fold change to DMSO) mean diff (P. vivax hypnozoites; isolate 1, 20 µM): 0.923
hypnozoites (fold change to DMSO) mean diff (P. vivax hypnozoites; isolate 2, 20 µM): 0.862
Number of liverstage Schizonts per well (P. vivax schizonts; isolate 1, technical replicates (Fig. 5b)): 0 per well
Number of liverstage Schizonts per well (P. vivax schizonts; isolate 2, technical replicates (Fig. 5b)): 3 per well and 0 per well (2×)
Number of liverstage Schizonts per well (P. vivax schizonts; isolate 3, technical replicates (Fig. 5b)): 2 per well and 1 per well
Schizonts per well (P. vivax schizonts; Isolate 2, 1.25 uM): 14 per well and 13 per well and 12 per well
Schizonts per well (P. vivax schizonts; Isolate 2, 2.5 uM): 10 per well and 15 per well and 13 per well
Schizonts per well (P. vivax schizonts; Isolate 2, 5 uM): 7 per well and 12 per well and 8 per well
Schizonts per well (P. vivax schizonts; Isolate 2, 10 uM): 5 per well and 3 per well and 6 per well
Schizonts per well (P. vivax schizonts; Isolate 3, 1.25 uM): 11 per well and 9 per well
Schizonts per well (P. vivax schizonts; Isolate 3, 2.5 uM): 6 per well and 10 per well
Schizonts per well (P. vivax schizonts; Isolate 3, 5 uM): 7 per well and 5 per well
Schizonts per well (P. vivax schizonts; Isolate 3, 10 uM): 4 per well and 2 per well
Schizonts per well (P. vivax schizonts; Isolate 3, 20 uM (Fig. 5c-d)): 2 per well and 1 per well
IC50 (P. vivax schizonts; Plasmodium vivax, Hepatocyte, 120 h, primary human hepatocytes, treatment day 5 to 8 post-infection, isolates 2 and 3): 2.8 to 4.2 µM
schizonts (fold change to DMSO) mean diff (P. vivax schizonts; isolate 1, 20 µM): 1.000
schizonts (fold change to DMSO) mean diff (P. vivax schizonts; isolate 2, 20 µM): 0.9434
schizonts (fold change to DMSO) mean diff (P. vivax schizonts; isolate 3, 20 µM): 0.8977
